Patent US20230111310A1, “CARBOXYLIC ACID DERIVATIVE-SUBSTITUTED IMINO ARYL COMPOUND, PREPARATION METHOD THEREFOR, HERBICIDAL COMPOSITION AND USE THEREOF” (Qingdao Kingagroot Chemical Compound Co., Ltd., priority 2020, published 2023)

Legend:
Format in all cases: in vivo
Alopecurus japonicus = experiment: Weeding effect in post-emergence stage; conditions: level of fresh weight growth control rate
Outline: (§1)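 Weeds were treated post-emergence at 2-3 leaves with compound doses from 7.5 up to 500 g/ha, formulated in acetone–Tween 80 with methyl oleate synergist. Efficacy was assessed as growth control after 3 weeks.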

Eleusine indica = experiment: Weeding effect in post-emergence stage; conditions: level of fresh weight growth control rate
Outline: as §1

Abutilon theophrasti [1] = experiment: Weeding effect in post-emergence stage; conditions: level of fresh weight growth control rate
Outline: as §1

Setaria viridis [2] = experiment: Weeding effect in post-emergence stage; conditions: level of fresh weight growth control rate
Outline: as §1

Digitaria sanguinalis = experiment: Weeding effect in post-emergence stage; conditions: level of fresh weight growth control rate
Outline: as §1

Echinochloa crusgalli = experiment: Weeding effect in post-emergence stage; conditions: level of fresh weight growth control rate
Outline: as §1

Descurainia sophia = experiment: Weeding effect in pre-emergence stage; conditions: 30 g/ha, 4 weeks
Procedure: (§2) The activity level criteria for plant damage (i.e., growth control rate) are as follows:
(§3) The aforementioned seeds of monocotyledonous and dicotyledonous weeds and main crops were put into a plastic pot loaded with soil and covered with 0.5-2 cm soil. The test compounds of the present invention was dissolved with acetone, then added with tween 80, diluted by a certain amount of water to reach a certain concentration, and sprayed immediately after sowing. The obtained seeds were incubated for 4 weeks in the greenhouse after spraying and the test results were observed. It was observed that the herbicide mostly had excellent effect at the application rate of 500, 250, 125, 60, 30, 15, 7.5 g/ha, especially to weeds such as Echinochloa crusgalli. Digitaria sanguinalis and Abutilon theophrasti, etc. And many compounds had good selectivity for corn, cotton, wheat, rice, soybean, and peanut etc. In addition, evaluate the weed control effect with the above activity standard level.

Amaranthus retroflexus = experiment: Weeding effect in pre-emergence stage; conditions: 30 g/ha, 4 weeks
Procedure: as §2, §3

Capsella bursa-pastoris = experiment: Weeding effect in pre-emergence stage; conditions: 30 g/ha, 4 weeks
Procedure: as §2, §3

Veronica didyma Tenore = experiment: Weeding effect in pre-emergence stage; conditions: 30 g/ha, 4 weeks
Procedure: as §2, §3

Abutilon theophrasti [3] = experiment: Weeding effect in pre-emergence stage; conditions: 30 g/ha, 4 weeks
Procedure: as §2, §3

Setaria viridis [4] = experiment: Weeding effect in pre-emergence stage; conditions: 30 g/ha, 4 weeks
Procedure: as §2, §3

Peanut = experiment: Pre-emergence stage, crop selectivity; conditions: 30 g/ha, 4 weeks
Procedure: as §2, §3

Soybeans = experiment: Pre-emergence stage, crop selectivity; conditions: 30 g/ha, 4 weeks
Procedure: as §2, §3

corn = experiment: Pre-emergence stage, crop selectivity; conditions: 30 g/ha, 4 weeks
Procedure: as §2, §3

cotton = experiment: Pre-emergence stage, crop selectivity; conditions: 30 g/ha, 4 weeks
Procedure: as §2, §3

Row | Compound | Weeding effect in post-emergence stage, Alopecurus japonicus (Alopecurus japonicus; Dose 15 g/ha) | Weeding effect in post-emergence stage, Eleusine indica (Eleusine indica; Dose 15 g/ha) | Weeding effect in post-emergence stage, Abutilon theophrasti (Abutilon theophrasti [1]; Dose 15 g/ha) | Weeding effect in post-emergence stage, Setaria viridis (Setaria viridis [2]; Dose 15 g/ha) | Weeding effect in post-emergence stage, Digitaria sanguinalis (Digitaria sanguinalis; Dose 15 g/ha) | Weeding effect in post-emergence stage, Echinochloa crusgalli (Echinochloa crusgalli; Dose 15 g/ha) | activity level (growth control rate) Descurainia sophia (Descurainia sophia) | activity level (growth control rate) Amaranthus retroflexus (Amaranthus retroflexus) | activity level (growth control rate) Capsella bursa-pastoris (Capsella bursa-pastoris) | activity level (growth control rate) Veronica didyma Tenore (Veronica didyma Tenore) | activity level (growth control rate) Abutilon theophrasti (Abutilon theophrasti [3]) | activity level (growth control rate) Setaria viridis (Setaria viridis [4]) | plant damage level Peanut (Peanut) | plant damage level Soybeans (Soybeans) | plant damage level Corn (corn) | plant damage level Cotton (cotton) | also measured
1 | CC(C)OC(=O)[C@@H](C)O/N=C/c1cc(-n2c(=O)cc(C(F)(F)F)n(C)c2=O)c(F)cc1Cl [199(R)] | 5 (Level 5: growth control rate is above 85%) | 5 (Level 5: growth control rate is above 85%) | 5 (Level 5: growth control rate is above 85%) | 5 (Level 5: growth control rate is above 85%) | 5 (Level 5: growth control rate is above 85%) | 5 (Level 5: growth control rate is above 85%) | 5 (Level 5: growth control rate is above 85%) | 5 (Level 5: growth control rate is above 85%) | 5 (Level 5: growth control rate is above 85%) | 5 (Level 5: growth control rate is above 85%) | 5 (Level 5: growth control rate is above 85%) | 5 (Level 5: growth control rate is above 85%) | 0 (Level 0: growth control rate is less than 5%) | 0 (Level 0: growth control rate is less than 5%) | 0 (Level 0: growth control rate is less than 5%) | 0 (Level 0: growth control rate is less than 5%) | –
2 | C[C@@H](O/N=C/c1cc(-n2c(=O)cc(C(F)(F)F)n(C)c2=O)c(F)cc1Cl)C(=O)OCC1CCCO1 (stereo partly drawn) [264(R)] | 5 (Level 5: growth control rate is above 85%) | 5 (Level 5: growth control rate is above 85%) | 5 (Level 5: growth control rate is above 85%) | 5 (Level 5: growth control rate is above 85%) | 5 (Level 5: growth control rate is above 85%) | 5 (Level 5: growth control rate is above 85%) | 5 (Level 5: growth control rate is above 85%) | 5 (Level 5: growth control rate is above 85%) | 5 (Level 5: growth control rate is above 85%) | 5 (Level 5: growth control rate is above 85%) | 5 (Level 5: growth control rate is above 85%) | 5 (Level 5: growth control rate is above 85%) | 0 (Level 0: growth control rate is less than 5%) | 0 (Level 0: growth control rate is less than 5%) | 0 (Level 0: growth control rate is less than 5%) | 0 (Level 0: growth control rate is less than 5%) | –
3 | CCCOC(=O)[C@@H](C)O/N=C/c1cc(-n2c(=O)cc(C(F)(F)F)n(C)c2=O)c(F)cc1Cl [198(R)] | 5 (Level 5: growth control rate is above 85%) | 5 (Level 5: growth control rate is above 85%) | 5 (Level 5: growth control rate is above 85%) | 5 (Level 5: growth control rate is above 85%) | 5 (Level 5: growth control rate is above 85%) | 5 (Level 5: growth control rate is above 85%) | 5 (Level 5: growth control rate is above 85%) | 5 (Level 5: growth control rate is above 85%) | 5 (Level 5: growth control rate is above 85%) | 5 (Level 5: growth control rate is above 85%) | 5 (Level 5: growth control rate is above 85%) | 5 (Level 5: growth control rate is above 85%) | 0 (Level 0: growth control rate is less than 5%) | 0 (Level 0: growth control rate is less than 5%) | 0 (Level 0: growth control rate is less than 5%) | 0 (Level 0: growth control rate is less than 5%) | –
4 | CCOC(=O)[C@@H](C)O/N=C/c1cc(-n2c(=O)n(C)c(=S)n(C)c2=O)c(F)cc1Cl [2(R)] | 5 (Level 5: growth control rate is above 85%) | 5 (Level 5: growth control rate is above 85%) | 5 (Level 5: growth control rate is above 85%) | 5 (Level 5: growth control rate is above 85%) | 5 (Level 5: growth control rate is above 85%) | 5 (Level 5: growth control rate is above 85%) | 5 (Level 5: growth control rate is above 85%) | 5 (Level 5: growth control rate is above 85%) | 5 (Level 5: growth control rate is above 85%) | 5 (Level 5: growth control rate is above 85%) | 5 (Level 5: growth control rate is above 85%) | 5 (Level 5: growth control rate is above 85%) | 0 (Level 0: growth control rate is less than 5%) | 0 (Level 0: growth control rate is less than 5%) | 0 (Level 0: growth control rate is less than 5%) | 0 (Level 0: growth control rate is less than 5%) | –
5 | CCOC(=O)C(O/N=C/c1cc(-n2c(=O)cc(C(F)(F)F)n(C)c2=O)c(F)cc1Cl)C1CC1 (stereo not shown) [Compound 319] | – | – | – | – | – | – | – | – | – | – | – | – | – | – | – | – | Weeding effect in post-emergence stage, Alopecurus japonicus (Alopecurus japonicus; Dose 30 g/ha): 5 (Level 5: growth control rate is above 85%); Weeding effect in post-emergence stage, Eleusine indica (Eleusine indica; Dose 30 g/ha): 5 (Level 5: growth control rate is above 85%); Weeding effect in post-emergence stage, Abutilon theophrasti (Abutilon theophrasti [1]; Dose 30 g/ha): 5 (Level 5: growth control rate is above 85%); Weeding effect in post-emergence stage, Setaria viridis (Setaria viridis [2]; Dose 30 g/ha): 5 (Level 5: growth control rate is above 85%); Weeding effect in post-emergence stage, Digitaria sanguinalis (Digitaria sanguinalis; Dose 30 g/ha): 5 (Level 5: growth control rate is above 85%); Weeding effect in post-emergence stage, Echinochloa crusgalli (Echinochloa crusgalli; Dose 30 g/ha): 5 (Level 5: growth control rate is above 85%)
6 | CCSC(=O)C(C)O/N=C/c1cc(-n2c(=O)n(C)c(=S)n(C)c2=O)c(F)cc1Cl (racemic) [Compound 168] | 5 (Level 5: growth control rate is above 85%) | 5 (Level 5: growth control rate is above 85%) | 5 (Level 5: growth control rate is above 85%) | 5 (Level 5: growth control rate is above 85%) | 5 (Level 5: growth control rate is above 85%) | 5 (Level 5: growth control rate is above 85%) | – | – | – | – | – | – | – | – | – | – | –
